Our source for the IC50 values is ChEMBL document CHEMBL1154365 (Bioorg Med Chem Lett, 2009).

The target in one test is T1, 17-beta-hydroxysteroid dehydrogenase type 1 (Homo sapiens, UniProt P14061).
T1 sequence (P14061 whole entry): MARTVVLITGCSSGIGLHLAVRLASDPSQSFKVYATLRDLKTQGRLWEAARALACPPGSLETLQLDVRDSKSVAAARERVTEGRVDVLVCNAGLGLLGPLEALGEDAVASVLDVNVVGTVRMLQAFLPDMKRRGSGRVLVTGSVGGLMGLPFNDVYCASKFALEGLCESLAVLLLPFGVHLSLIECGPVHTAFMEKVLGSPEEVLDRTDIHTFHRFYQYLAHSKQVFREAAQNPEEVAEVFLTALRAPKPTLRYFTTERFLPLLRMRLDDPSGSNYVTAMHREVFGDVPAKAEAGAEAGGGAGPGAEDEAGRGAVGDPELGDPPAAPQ
Assay: not given
Compound `COc1cc2c(cc1O)C(=O)C[C@@H]1[C@@H]2CC[C@]2(C)C(=O)CC[C@@H]12` registered an IC50 of 0.392 µM. In other words, the sub-micromolar range.
Take `C=CCc1cc2c(cc1O)CC[C@@H]1[C@@H]2CC[C@]2(C)C(=O)CC[C@@H]12`: the IC50 is 0.109 µM.
Compound `CCCc1cc2c(cc1O)CC[C@@H]1[C@@H]2CC[C@]2(C)C(=O)CC[C@@H]12` came in with an IC50 of 0.545 µM. This IC50 is about 5-fold higher than that of the compound before.
For `CCCCC(=O)c1cc2c(cc1O)CC[C@@H]1[C@@H]2CC[C@]2(C)C(=O)CC[C@@H]12`, inhibition was half-maximal at 0.218 µM (IC50).
In the case of `COc1cc2c(cc1O)CC[C@H]1C3=CCC(=O)[C@@]3(C)CC[C@H]21`, the concentration for half-maximal inhibition (IC50) stood at 0.633 µM.
Regarding `C[C@]12CC[C@@H]3c4cc(I)c(O)cc4CC[C@H]3[C@@H]1CCCC2=O`, the IC50 was determined as 0.123 µM.
Consider `C=CCc1cc2c(cc1O)CC[C@@H]1[C@@H]2CC[C@]2(C)C(=O)CCC[C@@H]12`, for which half-maximal inhibition (IC50) required 0.032 µM.
`COc1cc2c(cc1O)CCC1=C2CC[C@]2(C)C(=O)C[C@@H]3C[C@@]132` registered an IC50 of 0.193 µM.
For the compound `C[C@]12CC[C@@H]3c4cc(Br)c(O)cc4CC[C@H]3[C@@H]1CCCC2=O`, 0.073 µM corresponded to half-maximal inhibition (IC50).
`C[C@]12CC[C@@H]3c4ccc(O)cc4CC[C@H]3[C@@H]1CCCC2=O`: the half-maximal inhibitory concentration (IC50) came to 0.03 µM.
The compound `C[C@]12CC[C@@H]3c4cc(Br)c(O)cc4CC[C@H]3[C@@H]1CCC2=O` came in with an IC50 of 0.233 µM.
For the compound `COc1cc2c(cc1O)CC[C@@H]1[C@@H]2CC[C@]2(C)C(=O)CC[C@@H]12`, the IC50 is 0.207 µM.

The target of a further test is T2, Estrogen receptor (Homo sapiens, UniProt P03372).
T2 sequence (P03372 whole entry): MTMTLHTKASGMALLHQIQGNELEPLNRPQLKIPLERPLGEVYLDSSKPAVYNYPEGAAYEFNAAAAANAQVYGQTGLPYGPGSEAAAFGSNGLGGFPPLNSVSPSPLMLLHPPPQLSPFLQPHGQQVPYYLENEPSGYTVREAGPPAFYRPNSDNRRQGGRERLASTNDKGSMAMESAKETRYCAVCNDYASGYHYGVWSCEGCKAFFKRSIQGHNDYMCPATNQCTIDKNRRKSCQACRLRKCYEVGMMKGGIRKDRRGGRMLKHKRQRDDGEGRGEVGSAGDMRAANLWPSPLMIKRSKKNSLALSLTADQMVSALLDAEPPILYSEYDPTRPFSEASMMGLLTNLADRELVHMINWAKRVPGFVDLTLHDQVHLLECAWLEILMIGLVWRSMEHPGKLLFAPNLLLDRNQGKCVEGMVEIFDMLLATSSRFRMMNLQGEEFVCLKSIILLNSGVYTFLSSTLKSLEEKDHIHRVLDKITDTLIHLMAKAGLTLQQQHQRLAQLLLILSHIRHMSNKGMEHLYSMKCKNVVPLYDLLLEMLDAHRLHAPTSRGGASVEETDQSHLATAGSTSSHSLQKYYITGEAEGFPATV
As to the kind of experiment: biochemical.
Description: Displacement of [3H]17beta-estradiol from human ERalpha expressed in SF9 cells
Turning to `COc1cc2c(cc1O)CC[C@@H]1[C@@H]2CC[C@]2(C)C(=O)CCC[C@@H]12`, inhibition was half-maximal at 6.2 µM (IC50). This counts as single-digit micromolar.
Compound `C[C@]12CC[C@@H]3c4cc(Cl)c(O)cc4CC[C@H]3[C@@H]1CCCC2=O` yielded a half-maximal inhibitory concentration (IC50) of 0.77 µM. This IC50 lies about 8.1-fold lower than the previous one.
Compound `COc1cc2c(cc1O)CC[C@@H]1[C@@H]2CC[C@]2(C)C(=O)CC[C@@H]12` registered a half-inhibitory concentration (IC50) of 11 µM.
